Article PMC1253704, “Nitromusk and Polycyclic Musk Compounds as Long-Term Inhibitors of Cellular Xenobiotic Defense Systems Mediated by Multidrug Transporters” (Environmental Health Perspectives, 2004)
Read-outs that look alike come from different tables or passages of the source. Marks after values point to notes of the source that are not given here.

Key:
[1] = cited from earlier work
[2] = biological target: T1, efflux transporters in mussel gills (MXR transporters) (Mytilus californianus, UniProt B2WTH9); test: Competitive substrate/transporter inhibition assay: rhodamine B accumulation in mussel gill tissue disks; assay type: cell-based; conditions: concentration causing 10% of maximal inhibition; mean ± SD; probit regression; 1 μM rhodamine B, 90 min, 15°C
T1 sequence (B2WTH9 1-1311): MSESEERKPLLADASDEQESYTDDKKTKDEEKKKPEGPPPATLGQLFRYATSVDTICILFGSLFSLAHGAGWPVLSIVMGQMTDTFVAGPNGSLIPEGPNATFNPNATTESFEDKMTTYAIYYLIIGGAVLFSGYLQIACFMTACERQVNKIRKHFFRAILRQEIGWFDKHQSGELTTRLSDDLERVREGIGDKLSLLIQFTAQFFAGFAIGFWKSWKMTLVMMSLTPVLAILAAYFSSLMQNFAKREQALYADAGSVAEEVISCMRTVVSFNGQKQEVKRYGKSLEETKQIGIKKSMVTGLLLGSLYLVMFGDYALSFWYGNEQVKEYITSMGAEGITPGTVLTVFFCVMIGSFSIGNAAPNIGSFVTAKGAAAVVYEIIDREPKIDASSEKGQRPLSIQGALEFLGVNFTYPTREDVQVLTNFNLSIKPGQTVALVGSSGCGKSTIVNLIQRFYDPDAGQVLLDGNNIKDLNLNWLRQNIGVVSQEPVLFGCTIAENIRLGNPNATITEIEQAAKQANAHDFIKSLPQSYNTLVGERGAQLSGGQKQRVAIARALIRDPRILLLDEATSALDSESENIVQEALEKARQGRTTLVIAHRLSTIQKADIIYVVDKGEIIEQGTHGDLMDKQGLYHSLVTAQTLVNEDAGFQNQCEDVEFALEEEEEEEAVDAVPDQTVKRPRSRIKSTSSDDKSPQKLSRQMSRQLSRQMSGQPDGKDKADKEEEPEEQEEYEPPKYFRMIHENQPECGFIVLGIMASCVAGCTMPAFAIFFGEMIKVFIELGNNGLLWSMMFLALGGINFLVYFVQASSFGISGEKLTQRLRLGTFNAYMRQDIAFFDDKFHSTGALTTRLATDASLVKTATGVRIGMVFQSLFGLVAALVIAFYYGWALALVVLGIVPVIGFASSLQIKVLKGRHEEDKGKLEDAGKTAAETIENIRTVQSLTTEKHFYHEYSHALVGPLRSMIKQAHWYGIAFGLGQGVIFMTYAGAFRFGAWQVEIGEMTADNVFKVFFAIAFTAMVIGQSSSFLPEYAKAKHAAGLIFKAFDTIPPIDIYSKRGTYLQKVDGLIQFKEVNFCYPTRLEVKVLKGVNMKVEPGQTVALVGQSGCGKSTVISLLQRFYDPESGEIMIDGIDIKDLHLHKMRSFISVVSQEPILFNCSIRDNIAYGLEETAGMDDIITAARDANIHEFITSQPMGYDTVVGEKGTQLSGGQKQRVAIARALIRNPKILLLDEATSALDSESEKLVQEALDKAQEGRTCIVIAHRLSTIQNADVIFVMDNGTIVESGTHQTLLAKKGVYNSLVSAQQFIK
Experimental: The fluorescent dye rhodamine B was used as an indicator of efflux transporter activity. […] Test solutions were prepared in FSW with 1 μM rhodamine B. Stocks of the test compounds dissolved in ethanol were added to FSW to the desired concentrations, and all solutions were adjusted to 1% ethanol along with an ethanol control. […] Incubations were performed in glass petri dishes (diameter, 5 cm) in a volume of 10 mL.
(§1) Gill tissue disks were incubated in test solutions with gentle rocking for 90 min at 15°C in the dark (n = 2–5 tissue disks per dish). After exposure, the tissue disks were briefly washed twice in FSW to remove external rhodamine B, frozen on dry ice or in liquid nitrogen, and stored at −20°C in the dark. […] The sonicates were then centrifuged at 13,000g for 5 min, and the supernatant was transferred to black 96-well microplates (Packard Instrument Co., Meriden, CT). The amount of dye in the supernatant was determined with a fluorescence microplate reader (Packard FluoroCount; […]). Rhodamine B extracts were kept dark and on ice at all times. At each reading, background fluorescence was determined with pure n-butanol and subtracted from each value.
(§2) Transport activities in treated gill disks were normalized relative to nontreated controls that were run for each individual. The ratios, which indicate relative increases in fluorescence, were used as a measure of inhibition by each compound at the specified concentrations. […] IC10 and IC50 values were determined by probit analysis using a macro program for Microsoft Excel written by J. Greve (Fraunhofer-Institut für Umweltchemie und Ökotoxikologie, Schmallenberg, Germany).

[3] = biological target: T1, efflux transporters in mussel gills (MXR transporters); test: Long-term inhibition: transporter activity assay after 2 hr exposure and 0, 24, 48 hr washing in FSW; assay type: cell-based; conditions: 1 μM test compound 2 hr
Experimental: as §1
(§3) To examine the duration of inhibitory effects after exposure to test compounds, six to nine gill tissue disks were incubated with 1 μM of test compounds for 2 hr. Transporter activity was then assayed in one-third of the disks immediately after exposure and in the others after 24 hr and 48 hr of washing in fresh FSW (50 mL). FSW was changed after 24 hr. During exposure and washing, dishes were gently rocked at 15°C in the dark. The transporter activity assay was performed with 1 μM rhodamine B as described above.
as §2

[4] = parameters: method as in Käfferlein et al. 1998; conditions: ref Käfferlein et al. 1998, cited from earlier work
[5] = test system: efflux transporters in mussel gills (MXR transporters); test: Long-term inhibition: transporter activity assay after 2 hr exposure and 0, 24, 48 hr washing in FSW; assay type: cell-based, Mytilus californianus; conditions: 1 μM test compound 2 hr
Experimental: as §1, §3, §2

[6] = after 24 hr of washing, paired t-test p < 0.05

SMILES | Log Kow ([1]; ref Liu (2004)) | IC10 [2] | continuing inhibition of transporter activity, treatment versus control (in words) [3, 6] | continuing inhibition of transporter activity, treatment versus control (in words) ([3]; after 48 hr of washing) | Log Kow ([1]; ref Balk et al. (2001)) | Concentrations found in blood plasma ([4]; human blood plasma) | Concentrations found in body fat and breast milk ([4]; human body fat and breast milk) | continuing inhibition of transporter activity, treatment versus control (in words) [5, 6] | continuing inhibition of transporter activity, treatment versus control (in words) ([5]; after 48 hr of washing)
CCN(CC)c1ccc2c(-c3ccccc3C(=O)O)c3ccc(=[N+](CC)CC)cc-3oc2c1 [Rhodamine B, reference compound] | 1.5^c | – | – | – | – | – | – | – | –
Cc1c([N+](=O)[O-])c(C)c([N+](=O)[O-])c(C(C)(C)C)c1[N+](=O)[O-] [MX, 1-tert-Butyl-3,5-dimethyl-2,4,6-trinitrobenzene] | – | 140 ± 120 nM | significant | trend of reduced activity | 4.9^a | nanomolar range | 0.2 to 0.3 µmol/kg | – | –
CC1COCc2cc3c(cc21)C(C)(C)C(C)C3(C)C (centres unmarked) [HHCB, 1,3,4,6,7,8-Hexahydro-4,6,6,7,8,8-hexamethyl-cyclopenta-γ-[2]-benzopyran] | – | 370 ± 160 nM | – | – | 5.9^a | – | – | significant | trend of reduced activity
CC(=O)c1cc2c(cc1C)C(C)(C)C(C)C2C(C)C (centres unmarked) [ATII, 5-Acetyl-1,1,2,6-tetramethyl-3-isopropylindane] | – | 320 ± 40 nM | – | – | 6.3^a | – | – | significant | complete recovery
CC(=O)c1cc(C(C)(C)C)cc2c1CCC2(C)C [ADBI, 4-Acetyl-1,1-dimethyl-6-tert-butylindane] | – | 390 ± 340 nM | – | – | 5.9^a | – | – | clear trends of increased rhodamine levels | trend of reduced activity
CC(=O)c1c(C)c([N+](=O)[O-])c(C(C)(C)C)c([N+](=O)[O-])c1C [MK, 1-tert-Butyl-3,5-dimethyl-2,6-dinitro-4-acetylbenzene] | – | 90 ± 120 nM | – | – | 4.3^a | – | – | clear trends of increased rhodamine levels | trend of reduced activity
